This is an account of results in a melting point compilation (Tetko et al.; mined from patent text by program, amines drawn as free bases though some values may be those of a salt).

By melting point is commonly meant the temperature of the solid-liquid transition.

Compound `Cc1cccc(N2C(=O)C(=CN(C)C)c3ccccc32)c1` gave a melting point of 105 to 108 °C.

Compound `CC1C(Cl)(Cl)C1(C)C(=O)C(N)=O` (stereo unspecified) returned a melting point of 87 to 89 °C.

`O=C(N[C@@H](Cc1c[nH]c2ccccc12)C(=O)O)c1cccc(Cl)c1` showed a melting point of 160 to 161 °C.

In the case of `COc1ccc2c(c1OC)C(=O)c1c-2c(Cl)nc2ccc(Cl)cc12`, the melting point lay within 149 to 151 °C.

In turn, `Cn1c(C#N)cc(Br)c1Br` had a melting point of 104 to 105 °C.

The compound `COc1cc(C(C)C)c(Oc2cnc(N)nc2N)cc1N1CCN(S(C)(=O)=O)CC1` showed a melting point of 115 to 117 °C.

Turning to `O=C1CCC(N2Cc3c(OCc4ccc(CN5CCC(O)(c6ccccc6)CC5)cc4)cccc3C2=O)C(=O)N1` (stereo unspecified), the melting point fell in the range of 140 to 142 °C.

Regarding `CN(C)c1cccc2c1C(=O)N(C1(C(N)=O)CCCCC1)C2=O`, the melting point is 166 to 169 °C.

For `CC(C)CCOc1c(-c2ccc(S(C)(=O)=O)cc2)cnn(-c2cccc(Cl)c2)c1=O`, the melting point lay in the range of 134 to 135 °C.

As for `Cn1nc(-c2cc([N+](=O)[O-])cc([N+](=O)[O-])c2)cc1O`, the melting point lay in the range of 230 to 231 °C.

The compound `CCS(=O)c1ccc(-c2coc3ccc(-c4nnc(C)o4)nc23)cc1` (stereo unspecified) yielded a melting point of 207 to 208 °C.

The compound `CCOC(=O)c1ncn2c3cccc(Br)c3c(=O)n(C)c12` showed a melting point of 272 °C.

For the compound `CCOC(=O)C=C1NC(C)=C(C(=O)OCC)C(c2ccccc2C(F)(F)F)C1C(=O)OCC` (stereo unspecified), the melting point lay within 98 to 99 °C.

In turn, `CCN(CC)c1ccc(-c2ccc3c(c2)C=C(C(=O)Nc2ccc(CN(C)C4CCOCC4)cc2)CCN3C)cc1` displayed a melting point of 178 to 180 °C.

Regarding `CCCN1C(=O)N2CCCN=C2c2c1ncn2C`, the melting point lay within 107 to 109 °C.

As to `Fc1cc2c(c3cccnc13)OC(CN1CC=C(c3c[nH]c4ccccc34)CC1)CO2` (stereo unspecified), the melting point is 215 °C.

Compound `Nc1ccc(-c2n[nH]c3c2sc2ccccc23)cc1` had a melting point of 113 to 115 °C.

Compound `FC(F)(F)COc1ccc(-c2cc(C(F)(F)F)n3cnc(-c4ccncc4)c3n2)cc1C(F)(F)F` showed a melting point of 269 °C.

As to `CC(=O)N1C(=O)N(COCc2ccccc2)C(=O)C12c1ccccc1NC(=O)N2C` (stereo unspecified), the melting point lay in the range of 209 to 211 °C.

The compound `Cc1ccccc1C(=O)Nc1nc(-c2ccccc2)c(-c2ccc(=O)n(C(C)C)n2)s1` showed a melting point of 221 to 222 °C.

Turning to `CC(C)(C)OC(=O)N[C@H](Cc1ccc(Cl)c(Cl)c1)C(=O)N1CCC[C@H]1C(=O)NC1CCc2nc(N)sc2C1` (stereo partly specified), the melting point is 116 to 119 °C.

`O=C(Nc1cc(O)c(Cl)cc1O)c1ccc(O)c(F)c1` registered a melting point of 254 to 256 °C.

The compound `COc1ccc(Cl)c(Oc2c(CCl)nc(N3CCOCC3)nc2NS(=O)(=O)c2ccc(C(C)(C)C)cc2)c1` had a melting point of 155 to 156 °C.

On to `COc1ccc2c(c1)n(C1CCCCC1)c(=O)n2S(=O)(=O)c1ccc([N+](=O)[O-])cc1`, for which the melting point turned out to be 160 °C.

With `COC(=O)C(=O)NCCc1ccc(OCc2ccccc2)c(OCc2ccccc2)c1`, the melting point was 84 °C.

In turn, `CC1(C)CC(=O)C(C(=O)Nc2cccc(C(F)(F)F)c2)C(=O)O1` (stereo unspecified) showed a melting point of 150 °C.

In the case of `CC[C@H](C)C(OCc1ccccc1)[C@@H]1[C@H]([N+](=O)[O-])[C@H](c2ccccc2)N(C(=O)CN)[C@]1(C)C(=O)NCCC(=O)O` (stereo partly specified), the melting point was 116 °C.

The compound `CCCCCS(=O)(=O)NC(=O)/C=C/c1cc(C(C)(C)C)nn1Cc1ccc(C(F)(F)F)cc1Cl` had a melting point of 147 to 148 °C.

`O=C(O)C=Cc1ccc(-n2ccccc2=O)cc1` returned a melting point of 279 to 282 °C.

As to `CCc1nc2c(N)nc3cc(OCC(=O)N4CCOCC4)ccc3c2n1CC1CCOCC1`, the melting point lay in the range of 245 to 247 °C.

The compound `CN(CCO)c1ccnc(CO)c1Cl` registered a melting point of 49 to 53 °C.

As to `O=C(Nc1cn(C2CCCCO2)nc1C(=O)NCCNc1ccccc1)c1ccccn1` (stereo unspecified), the melting point was 182 to 183 °C.

With `CCn1c(=O)c(-c2c(Cl)cccc2Cl)cc2cnc(Nc3ccc(OC)cc3)nc21`, the melting point was 213 to 215 °C.

`N#Cc1cc(C=O)cc(O)c1O` came in with a melting point of 210 to 215 °C.

The compound `Nc1cc(I)cnc1Cl` gave a melting point of 129 °C.

`O=C1c2ccccc2-n2cnc(Cl)c2[C@@H]2CCCN12` registered a melting point of 233 to 234 °C.

The compound `COc1ccc2c(Cl)cc(-c3ccc(Cl)cc3)nc2c1` yielded a melting point of 153 to 155 °C.

Turning to `CCOC(=O)C1=C(N)NC(N)=C(C(=O)OCC)C1c1ccccc1F`, the melting point lay in the range of 128 to 130 °C.

Turning to `NC(=O)c1nc(-c2cccc(O)c2)nc2c1[nH]c(=O)n2-c1cccc(F)c1`, the melting point is more than 375 °C.

Turning to `COc1cc(C)cc(Sc2cccc(N)c2C#N)c1`, the melting point was in the range of 108 to 110 °C.

`COC(=O)CN(CC(=O)OC)[C@H]1CC[C@H](Nc2ncc3ncnc(Nc4ccc(F)c(Cl)c4)c3n2)CC1`: the melting point was 181 to 184 °C.

Turning to `Cc1nc(CS(C)(=O)=O)nc(OC(=O)NN2CC(C)OC(C)C2)c1C` (stereo unspecified), the melting point was 103 °C.

`[N-]=[N+]=C1C(=O)Nc2c1cccc2C(F)(F)F` gave a melting point of 173 to 175 °C.

For the compound `CCc1onc(-c2ccccc2)c1C(=O)NCCCN1CCN(c2ccccc2OCC(F)(F)F)CC1`, the melting point is 102 to 104 °C.

For the compound `O=c1[nH]c2cc(Cl)cc(Cl)c2c(O)c1Sc1ccc(O)cc1`, the melting point is more than 300 °C.

Compound `CC(=O)OC=C1CSC2C(NC(=O)Cc3ccccc3)C(=O)N2C1C(=O)OC(C)(C)C` (stereo unspecified) gave a melting point of 178 to 183 °C.

As to `CCc1cnc(-c2ccc(N=C=S)cc2)nc1`, the melting point came out at 114 °C.

`Cc1ccc(C)n1CCNC(=O)c1ccc(Cl)cc1` returned a melting point of 104 to 105 °C.

Turning to `CS(=O)(=O)c1ccc(-c2ncccc2C(=O)c2cccc(F)c2)cc1`, the melting point was 157 to 159 °C.

For `O=C1CCC(c2ccccc2)(c2ccccc2)C2CN(C(Cc3ccccc3)=NCc3ccc(F)cc3)CC12` (stereo unspecified), the melting point came out at 180 °C.

The compound `Cc1nc2ccc(NS(=O)(=O)c3cccc(Cl)c3C)cc2o1` showed a melting point of 127 to 128 °C.

`CC(C)Oc1ccc(S(=O)(=O)c2c(O)cccc2F)c([N+](=O)[O-])c1` returned a melting point of 117 to 119 °C.

Turning to `CCCCc1nc(SC)c(C(=O)O)n1Cc1ccc(-c2nc3ccccn3c2-c2nnn[nH]2)cc1`, the melting point is 160 °C.

For the compound `C#CCCc1cc2cc(C(=O)OC)ccc2o1`, the melting point fell in the range of 57 to 58 °C.

`CCOC(=O)c1c(C(=O)C(=O)OC)c2cc(Cl)ccc2n1C` came in with a melting point of 119 to 120 °C.

`COc1c(C2CCN(CCCCNC(=O)c3oc(-c4ccc(C#N)cc4)nc3C)CC2)ccc2c1CCCC2` returned a melting point of 157 °C.

Turning to `CCOc1ccc(N=Cc2cc(OC)c(OC)c(OC)c2)cc1`, the melting point was in the range of 75 to 77 °C.

In turn, `O=C(O)c1cc(=O)c2ccc(OCCCCCOc3ccc4c(=O)ccoc4c3)cc2o1` came in with a melting point of 113 to 116 °C.

For `CCCOc1cc(-c2cc3c(=O)[nH]c(C)nc3cc2C(C)C)ccc1Cl`, the melting point amounted to 236 °C.

For the compound `C(=Cc1ccc(-c2nnn[nH]2)cc1)c1ccc(OCc2ccc3ccccc3n2)cc1`, the melting point lay within 241 to 243 °C.

With `CC1(C)CC(=O)C=C(Nc2ccccc2Cl)C1`, the melting point is 150 to 152 °C.
